# What was measured:
# HIV-1 LAI [1] = experiment: microbe, parasite or virus in culture
# Method: (§1) Virus and cell lines. The T-cell lines, MT-2 and PM-1 were obtained through the AIDS Research and Reference Reagent Program, NIAID, and were contributed by Dr. D. Richman and Dr. R. Gallo, respectively. Both cell lines were cultured in RPMI 1640 medium supplemented with 10% fetal bovine serum, 2 mM L-glutamine and sub-cultured twice a week. The LAI strain of HIV-1 was obtained from the Fred Hutchinson Cancer Research Center, and the Bal strain was from NIH. Both virus stocks were amplified and titered in MT-2 cells (LAI) and PM-1 cells (Bal) using a virus infectivity assay.
# (§2) Drug Susceptibility and Cytotoxicity Assays. For drug susceptibility assays, MT-2 cells were infected with HIV-1 LAI (or PM-1 cells with HIV-1 Bal) at an MOI of 0.005, and seeded into 96-well microtiter plates ([…] cells/ml) containing serial dilutions of test compounds. […] Each drug ratio consisted of an array of 3-fold serial dilutions, and was performed in quadruplicate. The plates were incubated at 37° C./5% CO2. The MT-2 cells infected with HIV-1 LAI were incubated for 5 days. On day-five post-infection, 20 μl from each well was harvested and quantitated by a reverse transcriptase (RT) assay, or in samples involving non-nucleoside RT inhibitors, an MTS assay. The PM-1 cells infected with HIV-1 Bal and used for studying the combinations with CCR5 inhibitors were incubated for six days. On day-six post-infection, 20 μl from each well was harvested, 20- and 50-fold diluted and quantitated by p24 assay. Cytotoxicity assays were performed using uninfected cells, exposed to the same drug combinations, and incubated for six days. Cell viability was determined by an MTS assay. The CC50 values were calculated by using the exponential form of the median effect equation as mentioned below for calculation of EC50.
# (§3) In this equation, Fa stands for “fraction affected,” and represents the fraction of the viral load that has been inactivated. […] ED50 is drug concentration that is expected to reduce the amount of virus by 50%, and m is a parameter that reflects the slope of the concentration-response curve.
# In carrying out the combination experiments below, the EC50 for Compound 1 and each comparator compound was determined during the course of each study, and used in the subsequent data analysis.
# HIV-1 LAI [2] = experiment: Two-drug combination antiviral assay with Compound 1 (combination indices, Chou and Rideout); type: cell-based; conditions: combination with Compound 1; for Combination Indices at 50% HIV Inhibition (Confidence Interval) / Combination Indices at 75% HIV Inhibition (Confidence Interval) / Combination Indices at 90% HIV Inhibition (Confidence Interval): 95% CI in parenthesis; for Overall Result of two-drug combination: all ratios and inhibition levels
# Method: as §1, §2
# Analysis of Drug Combination Effects. For determination of CI values, drugs were diluted in a fixed ratio and multiple ratios were analyzed. The drug serial dilutions spanned a range of concentrations near the EC50 value of each compound, so that equivalent antiviral activities could be compared. Concentration-response curves were estimated for each individual drug and every combination using the median-effect equation. The equation was fit using a nonlinear regression routine (Proc Nlin) in PC SAS version 8.01 (SAS Institute Inc., SAS Version 8.01, Cary, NC: SAS Institute Inc., 1990).
# as §3
# To assess antiviral effects of different drug combination treatments, combination indices (CIs) were calculated according to Chou and Rideout. The combination index was computed as CI=[D]1/[Dm]1+[D]2/[Dm]2
# In this equation [Dm]1 and [Dm]2 are the concentrations of drugs that would individually produce a specific level of effect, while [D]1 and [D]2 are the concentrations of drugs in combination that would produce the same level of effect.
# Theoretically, additivity is implied if the CI is equal to one, synergy if the CI is less than one, and antagonism if the CI is greater than one. […] At best, we can construct a range that contains the likely values for the CI, given the noise in the data. In this report, these ranges are reported in parentheses next to each point estimate of the CI. […] If the range fell entirely above 1.0, we would infer antagonistic behavior. If the range were to include 1.0, we would infer additivity.
# uninfected cells = experiment: Cytotoxicity assay of the drug combinations in uninfected cells (MTS); type: cell-based; conditions: combination with Compound 1 at highest concentrations tested, six days
# Method: Drug Susceptibility and Cytotoxicity Assays. […] Each drug ratio consisted of an array of 3-fold serial dilutions, and was performed in quadruplicate. The plates were incubated at 37° C./5% CO2. […] On day-five post-infection, 20 μl from each well was harvested and quantitated by a reverse transcriptase (RT) assay, or in samples involving non-nucleoside RT inhibitors, an MTS assay. The PM-1 cells infected with HIV-1 Bal and used for studying the combinations with CCR5 inhibitors were incubated for six days. On day-six post-infection, 20 μl from each well was harvested, 20- and 50-fold diluted and quantitated by p24 assay. Cytotoxicity assays were performed using uninfected cells, exposed to the same drug combinations, and incubated for six days. Cell viability was determined by an MTS assay. The CC50 values were calculated by using the exponential form of the median effect equation as mentioned below for calculation of EC50.
# [3] = EC50 ratio 1:1 (Compound 1 to comparator)
# [4] = EC50 ratio 1:2.5 (Compound 1 to comparator)
# [5] = EC50 ratio 2.5:1 (Compound 1 to comparator)
# [6] = Human immunodeficiency virus 1, MT2, 120 h
Molecule,"EC50 (HIV-1 LAI [1]; MT-2 cells infected with HIV-1 LAI, MOI 0.005, 5 days, single drug)",Combination Indices at 50% HIV Inhibition (Confidence Interval) (HIV-1 LAI [2]; [3]),Combination Indices at 75% HIV Inhibition (Confidence Interval) (HIV-1 LAI [2]; [3]),Combination Indices at 90% HIV Inhibition (Confidence Interval) (HIV-1 LAI [2]; [3]),Combination Indices at 50% HIV Inhibition (Confidence Interval) (HIV-1 LAI [2]; [4]),Combination Indices at 75% HIV Inhibition (Confidence Interval) (HIV-1 LAI [2]; [4]),Combination Indices at 90% HIV Inhibition (Confidence Interval) (HIV-1 LAI [2]; [4]),Combination Indices at 50% HIV Inhibition (Confidence Interval) (HIV-1 LAI [2]; [5]),Combination Indices at 75% HIV Inhibition (Confidence Interval) (HIV-1 LAI [2]; [5]),Combination Indices at 90% HIV Inhibition (Confidence Interval) (HIV-1 LAI [2]; [5]),Overall Result of two-drug combination (HIV-1 LAI [2]),Overall Result of two-drug combination (HIV-1 LAI [2]; listed as enfuvurtide),Cytotoxicity of the drug combination (uninfected cells),EC50 (HIV-1 LAI [1]; [6])
enfuvirtide,6 nM,"0.17 (0.13, 0.21)","0.42 (0.29, 0.55)","1.03 (0.49, 1.58)","0.14 (0.11, 0.18)","0.30 (0.21, 0.39)","0.65 (0.32, 0.97)","0.26 (0.21, 0.31)","0.46 (0.34, 0.58)","0.82 (0.46, 1.18)",Moderate-,moderate synergistic,No significant cytotoxicity,
c1cc(CN2CCCNCCNCCCNCC2)ccc1CN1CCCNCCNCCCNCC1 [AMD-3100],,"0.51 (0.34, 0.69)","0.63 (0.33, 0.94)","0.89 (0.22, 1.57)","0.65 (0.49, 0.80)","0.55 (0.37, 0.74)","0.58 (0.27, 0.89)","0.56 (0.38, 0.73)","0.62 (0.18, 0.90)","0.74 (0.22, 1.26)",moderate synergistic,,No significant cytotoxicity,4 nM
"CON(Cc1ccc(F)cc1)C(=O)C=C(O)C(=O)O [Compound 2, 3-[(4-Fluorobenzyl)methoxycarbamoyl]-2-hydroxyacrylic acid]",,"0.42 (0.32, 0.52)","0.49 (0.33, 0.64)","0.57 (0.28, 0.85)","0.38 (0.30, 0.46)","0.42 (0.30, 0.55)","0.48 (0.26, 0.69)","0.46 (0.34, 0.59)","0.66 (0.41, 0.92)","0.96 (0.37, 1.54)",Synergistic,,No significant cytotoxicity,84 nM
